# Assay results as given in patent US7586008B2, “Propofol analogs, process for their preparation, and methods of use” (Abraxis Bioscience, Inc., priority 2003, dated 2009).
# Values joined by “and” are separate entries in the source; they are usually repeats but may differ in a detail not shown here. Equal entries are not always repeated. Where two headings read alike, the source gives them in different places.
# Experiments:
# rats [1] = assay: In vivo hypnotic/anesthetic activity, time to recovery of righting reflex; design: species or system rat; conditions: for Anesthesia Activity (Time to awakening, min): rats, tail vein injection in DMSO, 28 μmol/kg (5 mg/kg for propofol); for Time to Awakening (h) [mean ± SD, (N)] / time rats were asleep at LD10: rat
# Description: (§1) To determine the binding constant (KD) of propofol and its analogs for GABAA Cl channel, binding was determined as in Example 25 in presence of increasing concentration of propofol and the KD determined graphically using the Hill plots. In vivo hypnotic activity was determined as follows. Drugs solubilized in DMSO were administered to rats by tail vein injection (N=5 rats per group). A dose level of 28 μmol/kg (5 mg/kg for propofol) was used to compensate for differences in molecular weight of the analogs. Anesthetic activity in vivo was determined as time to recovery of righting reflex following administration of the compounds.
# (§2) Dose escalation experiment was performed in rat in order to compare the toxicity and the pharmacodynamic of CT8 against propofol. Drugs solubilized in DMSO were administered to rats (5 rats per group). Anesthetic activity in vivo was determined as time to recovery of righting reflex. Mortality was also monitored and the LD50 curves for propofol and CT8 constructed. In order to adjust for the differences in molecular weight between the two compounds, μmol/kg dose was used.
# GABAA Cl channel = assay: Competitive binding assay, GABAA Cl channel (3H-TBOB), bovine hippocampus; conditions: for IC50: read-out: GABAA CI Channel Binding (IC50); for Percent Inhibition, chloride channel: propofol at 10^-4 M
# Description: (§3) The propofol binding site on GABAA was defined using a series of competitive binding assays. Frozen bovine hippocampus was thawed and homogenized in 40 volumes of ice-cold 0.32 M sucrose. The suspension was centrifuged at 1000×g for 10 minutes at 4° C. The pellet was washed twice in assay buffer and reacted with radioactive ligand in presence or absence of propofol at 10−4 M final concentration. The amount of radioactivity remained on the Whatman filter following filtration of the reaction mix and two washes with assay buffer was determined using a liquid scintillation counter. Inhibition of radioactive ligand binding by propofol represents the competitive binding of propofol to the same site as the radioactive ligand. GABAA agonist site, GABAA α-1 site, GABAA α-5 site, GABAA α-6 site, and GABAA Cl channel were assayed using ^3H-GABA, ^3H-Flunitrazepam, ^3H-RY80, ^3H-Ro 15-4513, and ^3H-TBOB.
# as §1
# in vivo = conditions: male, Sprague-Dawley, rat, whole blood, iv
# rats [2] = assay: Dose escalation toxicity, mortality and LD curves; conditions: rat; for calculated LD10: drugs in DMSO
# Description: as §2
# [3] = rat; for V1 / V2: single i.v. bolus in DMSO, propofol 5 mg/kg, CT8 10 mg/kg
# GABAA agonist site = conditions: propofol at 10^-4 M, 3H-GABA
# Description: as §3
# GABAA α-1 site = conditions: propofol at 10^-4 M, 3H-Flunitrazepam
# Description: as §3
# GABAA alpha 2 site = conditions: propofol at 10^-4 M
# Description: as §3
# GABAA α-6 site = conditions: propofol at 10^-4 M, 3H-Ro 15-4513
# Description: as §3
# [4] = increasing concentration, Hill plots
smiles,measurement,setting,value
"CC(C)c1cc(Cc2ccc(C(F)(F)F)cc2)cc(C(C)C)c1O [CY130, 4-(4-(trifluoromethyl)benzyl)-2,6-diisopropylphenol]","Anesthesia Activity (Time to awakening, min)",rats [1],"8.2 ± 3.0, N = 5 min"
"CC(C)c1cc(C(=O)c2ccc(Cl)cc2)cc(C(C)C)c1O [CY182, (4-chlorophenyl)-(4-hydroxy-3,5-diisopropylphenyl)methanone]","Anesthesia Activity (Time to awakening, min)",rats [1],"67.7 ± 5.1, N = 3 min"
"CC(C)c1cc(C(=O)c2ccc([N+](=O)[O-])cc2)cc(C(C)C)c1O [CY61, (4-hydroxy-3,5-diisopropylphenyl)-(4-nitrophenyl)methanone]",IC50,GABAA Cl channel; [4],0.5 µM
same,"Anesthesia Activity (Time to awakening, min)",rats [1],"57.2 ± 0.7, N = 5 min"
"CC(C)c1cc(C(=O)c2ccc(C(F)(F)F)cc2)cc(C(C)C)c1O [CT8, (4-(trifluoromethyl)phenyl)-(4-hydroxy-3,5-diisopropylphenyl)methanone]",IC50,GABAA Cl channel; [4],0.57 µM
same,Vd,in vivo,5.3 L/kg
same,clearance,in vivo,1.33 mL/min/kg
same,Mortality (%),rats [2]; dose 1.427959 μmol/kg,0%
same,Mortality (%),rats [2]; dose 2.855919 μmol/kg,0%
same,Mortality (%),rats [2]; dose 14.2796 μmol/kg,0%
same,Mortality (%),rats [2]; dose 28.55919 μmol/kg,10%
same,Mortality (%),rats [2]; dose 57.11838 μmol/kg,40%
same,Mortality (%),rats [2]; dose 114.2368 μmol/kg,100%
same,Mortality (%),rats [2]; dose 228.4735 μmol/kg,100%
same,calculated LD10,rats [2],29 µmol/kg
same,"Time to Awakening (h) [mean ± SD, (N)]",rats [1]; dose 1.43 μmol/kg,"0.000 ± 0.000, (5) h"
same,"Time to Awakening (h) [mean ± SD, (N)]",rats [1]; dose 2.86 μmol/kg,"0.000 ± 0.000, (5) h"
same,"Time to Awakening (h) [mean ± SD, (N)]",rats [1]; dose 14.28 μmol/kg,"0.748 ± 0.094, (5) h"
same,"Time to Awakening (h) [mean ± SD, (N)]",rats [1]; dose 28.10 μmol/kg,"1.543 ± 0.085, (4) h"
same,"Time to Awakening (h) [mean ± SD, (N)]",rats [1]; dose 28.56 μmol/kg,1.728 ± 0.154 (5) h
same,"Time to Awakening (h) [mean ± SD, (N)]",rats [1]; dose 57.12 μmol/kg,"3.553 ± 0.166, (3) h"
same,time rats were asleep at LD10,rats [1],1.73 h
same,"AUC, fold higher than that of propofol","[3]; i.v. bolus, ratio to propofol",317 ×
same,"CL, fold slower than propofol","[3]; i.v. bolus, ratio to propofol",146 ×
same,"V1, fold smaller than that of propofol","[3]; i.v. bolus, ratio to propofol",375 ×
same,"V2, fold smaller than that of propofol","[3]; i.v. bolus, ratio to propofol",11 ×
same,"Vss, fold smaller than that of propofol","[3]; i.v. bolus, ratio to propofol",14 ×
same,V1,[3],0.04 L/kg
same,V2,[3],5.2 L/kg
"CON=C(c1ccc(C(F)(F)F)cc1)c1cc(C(C)C)c(O)c(C(C)C)c1 [CY127, 4-((4-(trifluoromethyl)phenyl)-(methoxyimino)methyl)-2,6-diisopropylphenol]","Anesthesia Activity (Time to awakening, min)",rats [1],"8.8 ± 5.8, N = 5 min"
"CC(C)c1cc(C(O)c2ccc(C(F)(F)F)cc2)cc(C(C)C)c1O (stereo not drawn) [CY135, 4-((4-(trifluoromethyl)phenyl)-(hydroxy)methyl)-2,6-diisopropylphenol]","Anesthesia Activity (Time to awakening, min)",rats [1],"15.0 ± 11.4, N = 5 min"
CC(C)c1cc(C(=O)c2ccc(S(C)(=O)=O)cc2)cc(C(C)C)c1O [CY177],"Anesthesia Activity (Time to awakening, min)",rats [1],"4.6 ± 1.5, N = 5 min"
"CC(C)c1cc(C(=O)c2ccc(I)cc2)cc(C(C)C)c1O [CY155, (4-hydroxy-3,5-diisopropylphenyl)-(4-iodophenyl)methanone]",IC50,GABAA Cl channel; [4],0.57 µM
"CCCc1ccc(C(=O)c2cc(C(C)C)c(O)c(C(C)C)c2)cc1 [CY181, (4-hydroxy-3,5-diisopropylphenyl)-(4-propylphenyl)methanone]","Anesthesia Activity (Time to awakening, min)",rats [1],"9.0 + 20.1, N = 5 min"
"CC(C)c1cc(C(=O)c2ccc(C(F)(F)F)c(F)c2)cc(C(C)C)c1O [CY93, (3-fluoro-4-(trifluoromethyl)phenyl)-(4-hydroxy-3,5-diisopropylphenyl)methanone]",IC50,GABAA Cl channel; [4],1.27 µM
same,"Anesthesia Activity (Time to awakening, min)",rats [1],"52.4 ± 37.7, N = 3 min"
"CC(C)c1cc(C(=O)c2ccc(C(F)(F)F)nc2)cc(C(C)C)c1O [CY176, (6-(trifluoromethyl)pyridin-3-yl)-(4-hydroxy-3,5-diisopropylphenyl)methanone]","Anesthesia Activity (Time to awakening, min)",rats [1],"14.9 + 21.1, N = 2 min"
"CC(C)c1cccc(C(C)C)c1O [Propofol, 2,6-diisopropylphenol]",IC50,GABAA Cl channel; [4],4.86 µM
same,"Percent Inhibition, chloride channel",GABAA Cl channel,only inhibited the binding of TBOB
same,"Percent Inhibition, chloride channel",GABAA Cl channel; listed as propofol,117.52%
same,Vd,in vivo,73 L/kg
same,clearance,in vivo,195 mL/min/kg
same,Mortality (%),rats [2]; dose 5.609469 μmol/kg,0%
same,Mortality (%),rats [2]; dose 28.04734 μmol/kg,10%
same,Mortality (%),rats [2]; dose 56.09469 μmol/kg,80%
same,Mortality (%),rats [2]; dose 112.1894 μmol/kg,100%
same,calculated LD10,rats [2],28 µmol/kg
same,"Percent Inhibition, agonist site",GABAA agonist site,No significant inhibition
same,"Percent Inhibition, agonist site",GABAA agonist site; listed as propofol,12.48%
same,"Percent Inhibition, alpha 1 site",GABAA α-1 site,No significant inhibition
same,"Percent Inhibition, alpha 1 site",GABAA α-1 site; listed as propofol,−14.31%
same,"Percent Inhibition, alpha 2 site",GABAA alpha 2 site,No significant inhibition
same,"Percent Inhibition, alpha 2 site",GABAA alpha 2 site; listed as propofol,−15.58%
same,"Percent Inhibition, alpha 6 site",GABAA α-6 site,No significant inhibition
same,"Percent Inhibition, alpha 6 site",GABAA α-6 site; listed as propofol,−0.89%
same,"Time to Awakening (h) [mean ± SD, (N)]",rats [1]; dose 5.61 μmol/kg,"0.000 ± 0.000, (5) h"
same,"Time to Awakening (h) [mean ± SD, (N)]",rats [1]; dose 28.05 μmol/kg,"0.346 ± 0.149, (4) h and 0.350 ± 0.228 (5) h"
same,"Time to Awakening (h) [mean ± SD, (N)]",rats [1]; dose 56.09 μmol/kg,"0.600 ± 0.000, (1) h"
same,time rats were asleep at LD10,rats [1],0.35 h
same,V1,[3],15.0 L/kg
same,V2,[3],58.0 L/kg
"CC(C)c1cc(C(=O)c2cc(C(F)(F)F)cc(C(F)(F)F)c2)cc(C(C)C)c1O [CY104, (3,5-bis(trifluoromethyl)phenyl)-(4-hydroxy-3,5-diisopropylphenyl)methanone]",IC50,GABAA Cl channel; [4],21.3 µM
same,"Anesthesia Activity (Time to awakening, min)",rats [1],"6.4 ± 2.8, N = 4 min"
"CC(C)c1cc(C(=O)c2ccc(C#N)cc2)cc(C(C)C)c1O [CY175, (4-cyanophenyl)-(4-hydroxy-3,5-diisopropylphenyl)methanone]","Anesthesia Activity (Time to awakening, min)",rats [1],"43.4 ± 23.5, N = 2 min"
"CC(C)Cc1ccc(C(=O)c2cc(C(C)C)c(O)c(C(C)C)c2)cc1 [CY122, (4-hydroxy-3,5-diisopropylphenyl)-(4-isobutylphenyl)methanone]","Anesthesia Activity (Time to awakening, min)",rats [1],"7.6 ± 1.8, N = 5 min"
"CC(C)c1cc(C(=O)c2ccc(Br)cc2)cc(C(C)C)c1O [CY178, (4-bromophenyl)-(4-hydroxy-3,5-diisopropylphenyl)methanone]","Anesthesia Activity (Time to awakening, min)",rats [1],"66.6 ± 17.9, N = 5 min"
"CC(C)c1cc(C(=O)c2cc(F)cc(C(F)(F)F)c2)cc(C(C)C)c1O [CY97, (3-fluoro-5-(trifluoromethyl)phenyl)-(4-hydroxy-3,5-diisopropylphenyl)methanone]",IC50,GABAA Cl channel; [4],4.67 µM
same,"Anesthesia Activity (Time to awakening, min)",rats [1],"1.9 ± 1.0, N = 5 min"
"CC(C)c1cc(C(=O)c2ccc(F)cc2)cc(C(C)C)c1O [CT7, (4-fluorophenyl)-(4-hydroxy-3,5-diisopropylphenyl)methanone]","Anesthesia Activity (Time to awakening, min)",rats [1],"34.2 ± 1.2, N = 2 min"
"CC(C)c1cc(C(=O)c2ccc(C(C)(C)C)cc2)cc(C(C)C)c1O [CY120, (4-tert-butylphenyl)-(4-hydroxy-3,5-diisopropylphenyl)methanone]","Anesthesia Activity (Time to awakening, min)",rats [1],"15.5 ± 9.2, N = 2 min"
"CC(C)c1cc(C(=O)c2cccc(C(F)(F)F)c2)cc(C(C)C)c1O [CY96, (3-(trifluoromethyl)phenyl)-(4-hydroxy-3,5-diisopropylphenyl)methanone]",IC50,GABAA Cl channel; [4],3.91 µM
same,"Anesthesia Activity (Time to awakening, min)",rats [1],"5.5 ± 2.4, N = 5 min"
"COc1ccc(C(=O)c2cc(C(C)C)c(O)c(C(C)C)c2)cc1 [CY157, (4-hydroxy-3,5-diisopropylphenyl)-(4-methoxyphenyl)methanone]","Anesthesia Activity (Time to awakening, min)",rats [1],"0.0 + 0.0, N = 5 min"
"CC(C)c1cc(C(=O)c2ccc3ccccc3c2)cc(C(C)C)c1O [CY99, (4-hydroxy-3,5-diisopropylphenyl)-(naphthalen-2-yl)methanone]","GABAA CI Channel Binding (IC50, μM)",GABAA Cl channel; [4],No activity
same,"Anesthesia Activity (Time to awakening, min)",rats [1],"5.5 ± 3.4, N = 5 min"
